Laboratory results from ChEMBL document CHEMBL4406882, “The plant-derived chalcone Xanthoangelol targets the membrane of Gram-positive bacteria” (Bioorg Med Chem, 2019).
Activity calls are given as the source filed them.

Legend:
Type in all cases: functional, organism-based
Bacillus subtilis [1] = assay: Induction of PspA protein expression in Bacillus subtilis 168 at 2.3 uM incubated for 15 mins by 35S-methionine pulse labeling based 2D-PAGE analysis
Bacillus subtilis [2] = assay: Induction of FabG protein expression in Bacillus subtilis 168 at 2.3 uM incubated for 15 mins by 35S-methionine pulse labeling based 2D-PAGE analysis
Bacillus subtilis [3] = assay: Induction of SufD protein expression in Bacillus subtilis 168 at 2.3 uM incubated for 15 mins by 35S-methionine pulse labeling based 2D-PAGE analysis
Bacillus subtilis [4] = assay: Induction of GroEL.2 protein expression in Bacillus subtilis 168 at 2.3 uM incubated for 15 mins by 35S-methionine pulse labeling based 2D-PAGE analysis
Bacillus subtilis [5] = assay: Induction of YqiG protein expression in Bacillus subtilis 168 at 2.3 uM incubated for 15 mins by 35S-methionine pulse labeling based 2D-PAGE analysis
Bacillus subtilis [6] = assay: Induction of YdjE protein expression in Bacillus subtilis 168 at 2.3 uM incubated for 15 mins by 35S-methionine pulse labeling based 2D-PAGE analysis
Bacillus subtilis [7] = assay: Induction of ClpC protein expression in Bacillus subtilis 168 at 2.3 uM incubated for 15 mins by 35S-methionine pulse labeling based 2D-PAGE analysis
Bacillus subtilis [8] = assay: Induction of ArgB protein expression in Bacillus subtilis 168 at 2.3 uM incubated for 15 mins by 35S-methionine pulse labeling based 2D-PAGE analysis
Bacillus subtilis [9] = assay: Induction of YhfK protein expression in Bacillus subtilis 168 at 2.3 uM incubated for 15 mins by 35S-methionine pulse labeling based 2D-PAGE analysis
Bacillus subtilis [10] = assay: Induction of NfrA protein expression in Bacillus subtilis 168 at 2.3 uM incubated for 15 mins by 35S-methionine pulse labeling based 2D-PAGE analysis
Bacillus subtilis [11] = assay: Induction of BdhA protein expression in Bacillus subtilis 168 at 2.3 uM incubated for 15 mins by 35S-methionine pulse labeling based 2D-PAGE analysis
Bacillus subtilis [12] = assay: Induction of Hom protein expression in Bacillus subtilis 168 at 2.3 uM incubated for 15 mins by 35S-methionine pulse labeling based 2D-PAGE analysis
Bacillus subtilis [13] = assay: Induction of ClpP protein expression in Bacillus subtilis 168 at 2.3 uM incubated for 15 mins by 35S-methionine pulse labeling based 2D-PAGE analysis
Bacillus subtilis [14] = assay: Induction of GroEL.1 protein expression in Bacillus subtilis 168 at 2.3 uM incubated for 15 mins by 35S-methionine pulse labeling based 2D-PAGE analysis
Bacillus subtilis [15] = assay: Induction of DnaK.1 protein expression in Bacillus subtilis 168 at 2.3 uM incubated for 15 mins by 35S-methionine pulse labeling based 2D-PAGE analysis
Bacillus subtilis [16] = assay: Induction of PepF protein expression in Bacillus subtilis 168 at 2.3 uM incubated for 15 mins by 35S-methionine pulse labeling based 2D-PAGE analysis
Bacillus subtilis [17] = assay: Induction of AroA protein expression in Bacillus subtilis 168 at 2.3 uM incubated for 15 mins by 35S-methionine pulse labeling based 2D-PAGE analysis
Bacillus subtilis [18] = assay: Induction of Hag protein expression in Bacillus subtilis 168 at 2.3 uM incubated for 15 mins by 35S-methionine pulse labeling based 2D-PAGE analysis
Bacillus subtilis [19] = assay: Induction of YvlB protein expression in Bacillus subtilis 168 at 2.3 uM incubated for 15 mins by 35S-methionine pulse labeling based 2D-PAGE analysis
Bacillus subtilis [20] = assay: Induction of YuaE protein expression in Bacillus subtilis 168 at 2.3 uM incubated for 15 mins by 35S-methionine pulse labeling based 2D-PAGE analysis
Bacillus subtilis [21] = assay: Induction of GroES protein expression in Bacillus subtilis 168 at 2.3 uM incubated for 15 mins by 35S-methionine pulse labeling based 2D-PAGE analysis
Bacillus subtilis [22] = assay: Induction of YceH protein expression in Bacillus subtilis 168 at 2.3 uM incubated for 15 mins by 35S-methionine pulse labeling based 2D-PAGE analysis
Bacillus subtilis [23] = assay: Induction of PpaC protein expression in Bacillus subtilis 168 at 2.3 uM incubated for 15 mins by 35S-methionine pulse labeling based 2D-PAGE analysis
Bacillus subtilis [24] = assay: Induction of HisI protein expression in Bacillus subtilis 168 at 2.3 uM incubated for 15 mins by 35S-methionine pulse labeling based 2D-PAGE analysis
Bacillus subtilis [25] = assay: Induction of DnaK.2 protein expression in Bacillus subtilis 168 at 2.3 uM incubated for 15 mins by 35S-methionine pulse labeling based 2D-PAGE analysis
Bacillus subtilis [26] = assay: Induction of Cah protein expression in Bacillus subtilis 168 at 2.3 uM incubated for 15 mins by 35S-methionine pulse labeling based 2D-PAGE analysis
Bacillus subtilis [27] = assay: Induction of CysK protein expression in Bacillus subtilis 168 at 2.3 uM incubated for 15 mins by 35S-methionine pulse labeling based 2D-PAGE analysis
Bacillus subtilis [28] = assay: Induction of SerA protein expression in Bacillus subtilis 168 at 2.3 uM incubated for 15 mins by 35S-methionine pulse labeling based 2D-PAGE analysis
Bacillus subtilis [29] = assay: Induction of YfmJ protein expression in Bacillus subtilis 168 at 2.3 uM incubated for 15 mins by 35S-methionine pulse labeling based 2D-PAGE analysis
Bacillus subtilis [30] = assay: Induction of Tpx protein expression in Bacillus subtilis 168 at 2.3 uM incubated for 15 mins by 35S-methionine pulse labeling based 2D-PAGE analysis
Bacillus subtilis [31] = assay: Induction of MenB protein expression in Bacillus subtilis 168 at 2.3 uM incubated for 15 mins by 35S-methionine pulse labeling based 2D-PAGE analysis
Bacillus subtilis [32] = assay: Induction of PdhA protein expression in Bacillus subtilis 168 at 2.3 uM incubated for 15 mins by 35S-methionine pulse labeling based 2D-PAGE analysis
Bacillus subtilis [33] = assay: Induction of YqjE protein expression in Bacillus subtilis 168 at 2.3 uM incubated for 15 mins by 35S-methionine pulse labeling based 2D-PAGE analysis
Bacillus subtilis [34] = assay: Induction of TrxA protein expression in Bacillus subtilis 168 at 2.3 uM incubated for 15 mins by 35S-methionine pulse labeling based 2D-PAGE analysis
Bacillus subtilis [35] = assay: Induction of YkgB protein expression in Bacillus subtilis 168 at 2.3 uM incubated for 15 mins by 35S-methionine pulse labeling based 2D-PAGE analysis
Bacillus subtilis [36] = assay: Induction of HisG protein expression in Bacillus subtilis 168 at 2.3 uM incubated for 15 mins by 35S-methionine pulse labeling based 2D-PAGE analysis
Bacillus subtilis [37] = assay: Induction of YwfI protein expression in Bacillus subtilis 168 at 2.3 uM incubated for 15 mins by 35S-methionine pulse labeling based 2D-PAGE analysis
Bacillus subtilis [38] = assay: Induction of SodA protein expression in Bacillus subtilis 168 at 2.3 uM incubated for 15 mins by 35S-methionine pulse labeling based 2D-PAGE analysis
Bacillus subtilis [39] = assay: Induction of AhpF protein expression in Bacillus subtilis 168 at 2.3 uM incubated for 15 mins by 35S-methionine pulse labeling based 2D-PAGE analysis

Measured: Activity

CC(C)=CCC/C(C)=C/Cc1c(O)ccc(C(=O)/C=C/c2ccc(O)cc2)c1O [XANTHOANGELOL]
active: all assays above
